Data taken from article PMC6568410, “A scorpion venom peptide derivative BmKn‒22 with potent antibiofilm activity against Pseudomonas aeruginosa” (PLoS ONE, 2019).
Where no end group is shown, it is not given here.

Experiments:
P. aeruginosa PAO1 [1] = assay: MIC, broth microdilution; format: cell-based, Pseudomonas aeruginosa; conditions: broth microdilution in LB broth, 10^6 CFU/mL, 37 °C, 24 h; printed only as half of the MIC
Method: MIC of azithromycin against P. aeruginosa was determined by using broth microdilution assay according to the protocol previously described with some modifications. Twofold serial dilutions of azithromycin (AZM; Sigma, St. Louis, USA) were prepared in LB broth in the wells of flat-bottomed 96-well microtiter plates (Nunc). Aliquots of P. aeruginosa PAO1 suspension at a final concentration of 10^6 CFU/mL was added to the wells of flat-bottomed 96-well microtiter plates (Nunc).

[2] = tested on: P. aeruginosa PAO1 biofilms; assay: Antibiofilm activity of BmKn-22 and azithromycin alone or in combination, crystal violet; format: cell-based, Pseudomonas aeruginosa
Method: (§1) The effect of BmKn‒2 peptide and derivatives on biofilm formation of P. aeruginosa PAO1 was determined according to the method published previously with some modifications. Briefly, 100 μL of the test peptides was plated into the wells of flat-bottomed 96-well microtiter plates (Nunc™, Roskilde, Denmark) at the final concentrations of 200 ‒ 800 μM. Aliquots of the P. aeruginosa PAO1 suspension were then inoculated to the wells of 96-well microtiter plates to obtain a final concentration of 10^6 CFU/mL. Culture without the test peptides was used as the untreated control. After incubation at 37 ^OC for 24 h without agitation, planktonic cells were removed and the plates were gently rinsed twice with phosphate buffered saline (PBS) pH 7.4. Biofilms were then stained with 0.1% crystal violet solution (Merck, Darmstadt, Germany) for 10 minutes at room temperature. Excess stains were rinsed off with PBS pH 7.4 and the plates were left dry at 37 ^OC for 2 h. Subsequently, biofilm biomass was solubilized with 30% acetic acid and the optical density (OD) measured at 550 nm using a microplate reader (BioTek Synergy HT).
Briefly, P. aeruginosa PAO1 suspension (10^6 CFU/mL, final concentration) was added to the wells of flat-bottomed 96-well microtiter plates (Nunc) containing the test peptide, azithromycin (AZM; Sigma) alone or in combinations. […] Biofilm formation was employed by measuring biofilm biomass stained with crystal violet as a protocol described in previous section.

[3] = tested on: P. aeruginosa PAO1 biofilm formation; assay: Biofilm formation assay, crystal violet staining; format: cell-based, Pseudomonas aeruginosa; conditions: for reduction of P. aeruginosa biofilms: 24 h, compared with untreated control, result in words
Method: as §1

P. aeruginosa PAO1 [4] = assay: Growth assay, standard plate counts; format: cell-based, Pseudomonas aeruginosa; conditions: 800 µM, 24 h; for effect on bacterial counts (growth): compared with untreated control, result in words
Method: The effects of BmKn‒2 peptide and its derivatives on growth of P. aeruginosa PAO1 were carried out as described previously with some modifications. Bacterial suspension (10^6 CFU/mL) and the test peptides (800 μM, final concentration) were incubated at 37 ^OC at 150 rpm. Bacterial culture without the test peptides was used as the untreated control. After 24 h, bacterial concentration was evaluated. Cultures from each treatment were taken and 10-fold serial dilution was performed; 100 μL of each dilution was then spread on LB agar plates. Following incubation at 37°C for 24 h, the colonies were counted and expressed as log10 CFU/mL.

sheep red blood cells = assay: Hemolytic assay; format: cell-based; conditions: 800 µM, 37 °C, 1 h
Method: Hemolytic activity of the test peptides was assayed according to a protocol described previously. Suspension of 2% sheep red blood cells (100 μL) prepared in PBS pH 7.4 was incubated with 100 μL of the test peptides (800 μM, final concentration). After incubation at 37 ^OC for 1 h, the suspension was centrifuged at 1,000 g for 5 min followed by transferring 100 μL of the supernatant to 96 well-microtiter plate (Nunc). Released hemoglobin was then determined by measuring an absorbance at 405 nm using a microplate reader (BioTek Synergy HT). Positive and negative controls in this assay were 1% Triton X-100 and PBS pH 7.4, respectively. Hemolysis (%) was calculated using an equation: (OD405 nm peptide ‒ OD405 nm PBS pH 7.4)/(OD405 nm 1% Triton X-100 ‒ OD405 nm PBS pH 7.4) × 100.

[5] = tested on: L929 mouse fibroblast cells; assay: Cytotoxicity, MTT assay; format: cell-based; conditions: 800 µM, 24 h; for effect on viability of L929 cells: compared with untreated control, result in words; for Cell viability (%): L929 cells
Method: The toxicity of the test peptides against L929 mouse fibroblast cells was assessed by 3-(4,5-dimethylthiazol-2-yl)-2,5-diphenyltetrazolium bromide (MTT) assay. L929 mouse fibroblast cells from American Type Culture Collection (ATCC, Manassas, VA, USA) were cultured in Dulbecco's Modified Eagle Medium (DMEM; HyClone, Utah, USA) supplemented with 10% fetal bovine serum (Gibco, South America), 10 mM 4-(2-hydroxyethyl)-1 piperazineethanesulfonic acid (HEPES; HyClone, Utah, USA), 2 mM L-glutamine (Gibco, Brazil) and 100 U/mL penicillin and 100 μg/ml streptomycin (Gibco, USA) in a 5% CO2 atmosphere at 37°C. L929 cells (2×10^4 cells/well) were seeded in 96-well plates (Nunc) and incubated overnight. The culture medium was discarded and replaced by 100 μL of fresh DMEM containing the test compounds (final concentration 800 μM). Cells without the test compounds served as untreated control. After 24 h incubation, 20 μL of MTT solution (5 mg/mL; Sigma, St. Louis, MO, USA) was added and incubated for 3 h. The culture supernatant was removed and 100 μL dimethyl sulfoxide was added to each well to dissolve the formazan crystals. The absorbance was measured at 540 nm on a microplate reader (BioTek Synergy HT). Percentage of cell viability was calculated according to the equation: (OD of treated cells/ OD of untreated cells) × 100.

[6] = tested on: P. aeruginosa PAO1 established biofilms; assay: Established (24 h-preformed) biofilm assay, crystal violet staining; format: cell-based, Pseudomonas aeruginosa
Method: Antibiofilm activity of the test peptides was also examined against established biofilms as follows. Aliquots of the P. aeruginosa PAO1 suspension adjusted to a final concentration of 10^6 CFU/mL were seeded into the wells of flat-bottomed 96-well microtiter plates (Nunc). Biofilms were established at 37°C for 24 h. After incubation, nonadherent planktonic cells were removed by gently washing the wells with sterile PBS pH 7.4. Preformed biofilms were then treated with the test peptides at concentrations of 200 ‒ 800 μM and incubated at 37°C for 24 h. Culture without the test peptides served as the untreated control. After the incubation, the test peptides were aspirated gently and the plates were rinsed twice with PBS pH 7.4. Biofilm biomass was subsequently quantified by 0.1% crystal violet staining as previously described.

[7] = 37 °C, 150 rpm, plate counts, untreated control 9.183, mean of 3 independent experiments
[8] = Exp. 1 (untreated control 9.082)
[9] = Exp. 2 (untreated control 9.198)
[10] = Exp. 3 (untreated control 9.268)

Molecule | reduction of P. aeruginosa biofilms ([3]; 800 µM) | Bacterial growth, Log10 CFU/mL (P. aeruginosa PAO1 [4]; [7]) [Log10 CFU/mL] | effect on bacterial counts (growth) (P. aeruginosa PAO1 [4]) | Bacterial growth, Log10 CFU/mL (P. aeruginosa PAO1 [4]; [8]) [Log10 CFU/mL] | Bacterial growth, Log10 CFU/mL (P. aeruginosa PAO1 [4]; [9]) [Log10 CFU/mL] | Bacterial growth, Log10 CFU/mL (P. aeruginosa PAO1 [4]; [10]) [Log10 CFU/mL] | lysis of red blood cells (sheep red blood cells) | effect on viability of L929 cells [5] | Cell viability (%) ([5]; Exp. 1) | Cell viability (%) ([5]; Exp. 2) | Cell viability (%) ([5]; Exp. 3) | further results
CC[C@H]1OC(=O)[C@H](C)[C@@H](O[C@H]2C[C@@](C)(OC)[C@@H](O)[C@H](C)O2)[C@H](C)[C@@H](O[C@@H]2O[C@H](C)C[C@H](N(C)C)[C@H]2O)[C@](C)(O)C[C@@H](C)CN(C)[C@H](C)[C@@H](O)[C@]1(C)O [AZM, azithromycin, reference compound] | – | – | – | – | – | – | – | – | – | – | – | sub-MIC (1/2 of MIC) dose (P. aeruginosa PAO1 [1]): 64 µg/mL; Biofilm biomass (% control) ([2]; azithromycin alone 64 µg/ml (1/2 MIC), 24 h, 37 °C, crystal violet, mean of 3 independent experiments): 100.000 % control; Biofilm biomass (% control) ([2]; azithromycin alone 64 µg/ml, Exp. 1): 100.000 % control; Biofilm biomass (% control) ([2]; azithromycin alone 64 µg/ml, Exp. 2): 100.000 % control; Biofilm biomass (% control) ([2]; azithromycin alone 64 µg/ml, Exp. 3): 100.000 % control; biofilm inhibition by azithromycin alone ([2]; sub-MIC dose (1/2 MIC, 64 µg/mL), result in words): significant biofilm inhibition was not evident
FIGAIAR [BmKn-26] | less biofilm reduction activities | 9.247 | no significant (P > 0.05) differences in bacterial counts | 9.213 | 9.213 | 9.314 | less or no hemolysis | low effects on cell viability | 85.233 | 87.113 | 79.724 | –
FIGAIARL [BmKn-25] | less biofilm reduction activities | 9.293 | no significant (P > 0.05) differences in bacterial counts | 9.255 | 9.288 | 9.335 | less or no hemolysis | low effects on cell viability | 82.909 | 93.165 | 83.012 | –
FIGAIARLL [BmKn-24] | less biofilm reduction activities | 9.313 | no significant (P > 0.05) differences in bacterial counts | 9.304 | 9.273 | 9.364 | less or no hemolysis | low effects on cell viability | 84.274 | 81.538 | 83.751 | –
FIGAIARLLS [BmKn-23] | marked reduction | 9.429 | no significant (P > 0.05) differences in bacterial counts | 9.488 | 9.359 | 9.440 | less or no hemolysis | low effects on cell viability | 80.383 | 84.400 | 88.135 | Biofilm inhibition (%), biofilm formation ([3]; 200 µM, Exp. 1): 28.654%; Biofilm inhibition (%), biofilm formation ([3]; 200 µM, Exp. 2): 28.944%; Biofilm inhibition (%), biofilm formation ([3]; 200 µM, Exp. 3): 40.209%; Biofilm inhibition (%), biofilm formation ([3]; 400 µM, Exp. 1): 34.053%; Biofilm inhibition (%), biofilm formation ([3]; 400 µM, Exp. 2): 36.612%; Biofilm inhibition (%), biofilm formation ([3]; 400 µM, Exp. 3): 46.402%; Biofilm inhibition (%), biofilm formation ([3]; 800 µM, Exp. 1): 44.669%; Biofilm inhibition (%), biofilm formation ([3]; 800 µM, Exp. 2): 49.083%; Biofilm inhibition (%), biofilm formation ([3]; 800 µM, Exp. 3): 70.992%; Biofilm inhibition (%), preformed biofilm ([6]; 200 µM, Exp. 1): 0.000%; Biofilm inhibition (%), preformed biofilm ([6]; 200 µM, Exp. 2): 3.802%; Biofilm inhibition (%), preformed biofilm ([6]; 200 µM, Exp. 3): 6.512%; Biofilm inhibition (%), preformed biofilm ([6]; 400 µM, Exp. 1): 12.191%; Biofilm inhibition (%), preformed biofilm ([6]; 400 µM, Exp. 2): 4.570%; Biofilm inhibition (%), preformed biofilm ([6]; 400 µM, Exp. 3): 0.000%; Biofilm inhibition (%), preformed biofilm ([6]; 800 µM, Exp. 1): 3.155%; Biofilm inhibition (%), preformed biofilm ([6]; 800 µM, Exp. 2): 0.000%; Biofilm inhibition (%), preformed biofilm ([6]; 800 µM, Exp. 3): 8.639%; % inhibition of 24 h-preformed P. aeruginosa biofilms ([6]; range over 200 - 800 µM, 24 h treatment): No eradication activity
FIGAIARLLSKI [BmKn-21] | marked reduction | 6.183 | reduction in bacterial counts | 6.000 | 6.314 | 6.236 | – | significant decrease (P < 0.001) in viability | 1.974 | 1.699 | 1.835 | –
FIGAIARLLSKIF [BmKn-2, reference compound] | marked reduction | 6.872 | reduction in bacterial counts | 6.755 | 6.448 | 7.411 | – | significant decrease (P < 0.001) in viability | 2.236 | 2.027 | 1.988 | –
